The values that follow are results of earlier work, collected in patent publication US6774247B2, “Aqueous solution of ascorbic acid and method for producing same” (AquaNova German Solubilisate Technology (AGT) GmbH, priority 2001, dated 2004).

The conditions of the data set: aqueous ascorbic acid solution, after 30 days.

On to `O=C1O[C@H]([C@@H](O)CO)C(O)=C1O` [ascorbic acid], for which the “added ascorbic acid still present” value was “about 70%”.
